Where two headings read alike, the source gives them in different places.
What was measured:
[1] = test system: amphetamine-induced hyper-locomotion; assay: Reduction of amphetamine-induced hyper-locomotion; assay type: in vivo, rat; conditions: rats pretreated with d-amphetamine 1.5 mg/kg i.p., test compound s.c., last 45 minutes of one hour, range covers 95% of fits
Source text: In this model, dopaminergic neurotransmission is increased by systemic administration of d-amphetamine at a dose that is sufficiently high to produce a large increase in locomotor activity. The ability of a compound to antagonize this hyperactivity reflects anti-dopaminergic properties, which are part of the dopaminergic stabiliser profile.
Photobeam sensors were spaced 2.5 cm apart.
For most compounds, the evaluation is based on 16 amphetamine pre-treated animals over the dose range 0, 11, 33 and 100 μmol/kg s.c. in one single experiment, with complementary doses in separate experiments. Calculations are based on distance during the last 45 minutes of one hour of measurement. The distances are normalised to amphetamine-control and fitted by least square minimization to the function “End-(End-Control)/(1+(dose/ED50)^Slope)”. […] To estimate confidence levels for the parameters, the fit is repeated 100 times with a random evenly distributed squared weight (0 to 1) for every measurement value. Presented ED50-ranges cover 95% of these values.

[2] = assay type: in vitro ADME; conditions: rat, microsomes, 0.25 h, pH 7.4
Experimental: Rat liver microsomes were isolated as described by Förlin (1980) Effects of Clophen A50, 3-methylcholantrene, pregnenolone-16aq-carbonitrile and Phenobarbital on the hepatic microsomal cytochrome P-450-dependent monooxygenaser system in rainbow trout, salmo garirdneri, of different age and sex. Tox Appl Pharm. 54(3) 420-430, with minor modifications e.g. 3 mL/g liver of a 0.1 M Na/K*PO4 buffer with 0.15 M KCl, pH 7.4, (buffer 1) was added before homogenisation, the homogenate was centrifuged for 20 minutes instead of 15, the supernatant was ultracentrifuged at 100.000 g instead of 105.000 g and the pellet from the ultracentrifugation was resuspended in 1 mL/g liver of 20% v/v 87% glycerol in buffer 1.
1 μL of, 0.2 or 1 mM test substance diluted in water and 10 μL 20 mg/mL rat liver micro-some were mixed with 149 μL 37° C. buffer 1 and the reaction was started by addition of 40 μL 4.1 mg/mL NADPH. After 0 or 15 minutes incubation at 37° C. in a heating block (LAB-LINE, MULTI-BLOK Heater or lab4you, TS-100 Thermo shaker at 700 rpm) the reaction was stopped by addition of 100 μL pure acetonitrile. The protein precipitation was then removed by rejecting the pellet after centrifugation at 10.000 g for 10 minutes (Heraeus, Biofuge fresco) in 4° C. The test compound was analysed using HPLC-MS (Hewlett-Packard 1100MSD Series) with a Zorbax SB-C18 column (2.1*150 mm, 5 μm) using 0.03% formic acid and acetonitrile as mobile phase (gradient) or a Zorbax Eclipse XDB-C18 (3*75 mm, 3.5 μm) using 0.03% acetic acid and acetonitrile as mobile phase (gradient). The 15 min turnover was calculated as the fraction of test compound eliminated after 15 minutes, expressed in percent of 0 min levels, ie 100*[conc test compound at 0 min−concentration at 15 min]/conc at 0 min.
Preparation of liver microsomes was performed as described in Förlin (1980). Protocols for incubation with liver microsomes are referred in Crespi et Stresser (2000), and Renwick et al (2001).

[3] = Oral bioavailability in rat; assay type: in vivo
Experimental: Experiments are performed 24 hours after implantation of arterial and venous catheters. Test compound is administered orally at 12.5 μmol/kg or intravenously at 5 μmol/kg using the venous catheters, n=3 per group. Arterial blood samples are then taken during […] at 0, 3, 9, 27, 60, 120, 180, 240, 300 and, 360 minutes after administration of the test compound. The oral bioavailability was calculated as the ratio of the AUC (Area under curve) obtained after oral administration over the AUC obtained after intravenous administration for each rat. The parameter AUC was calculated according to the following: AUC: the area under the plasma concentration versus time curve from time zero to the last concentration measured (Clast), calculated by the log/linear trapezoidal method.
The levels of test compound are measured by means of liquid chromatography-mass spectrometry (LC-MS). (Hewlett-Packard 1100MSD Series). The module include a quaternary pump system, vacuum degasser, thermostatted autosampler, thermostatted column compartment, diode array detector and API-ES spray chamber. […]
Extractions procedure: Plasma samples (0.25-0.5 ml) were diluted with water to 1 ml, and 60 pmol (100 μl) internal standard (−)-OSU6241 was added. […] The selective ion (MH^+) was monitored for each Example, and MH^+ 296 for (−)-OSU6241 ((3-[3-(ethylsulfonyl)phenyl]-1-propylpiperidine). […]

[4] = test system: Locomotor activity in MK-801 pre-treated rats; assay: Locomotor activity in MK-801 pre-treated rats; conditions: MK-801 0.7 mg/kg i.p. 90 minutes before test compound; 100 μmol/kg; recorded 30-60 minutes after administration

CCCN1CCC(c2ccc(F)c(C(F)(F)F)c2)CC1
ED50 ([1]; Rattus norvegicus): 30 µmol/kg

COc1cccc(C2(O)CCN(C)CC2)c1OC
ED50 reduction of amphetamine-induced hyper-locomotion [1]: inactive

CCCN1CCC(O)(c2cccc(C(F)(F)F)c2F)CC1 [Example 1, 4-[2-FLUORO-3-(TRIFLUOROMETHYL)PHENYL]-1-PROPYLPIPERIDIN-4-OL]
turnover at 15 minutes [2]: 27%

CCN1CCC(O)(c2cccc(C(F)(F)F)c2F)CC1 [Example 3, 4-[2-FLUORO-3-(TRIFLUOROMETHYL)PHENYL]-1-ETHYLPIPERIDIN-4-OL]
turnover at 15 minutes [2]: 8%
bioavailability ([3]; in vivo): ~80%

CCCN1CCC(O)(c2ccc(F)c(C(F)(F)F)c2)CC1 [Example 8, 4-[4-FLUORO-3-(TRIFLUOROMETHYL)PHENYL]-1-PROPYLPIPERIDIN-4-OL]
turnover at 15 minutes [2]: 29%
bioavailability ([3]; plasma, oral 12.5 μmol/kg vs i.v. 5 μmol/kg, AUC ratio, read-out: oral bioavailability): ~29%

CCCN1CCC(O)(c2cccc(S(C)(=O)=O)c2)CC1 [drawing 51]
ED50 reduction of amphetamine-induced hyper-locomotion [1]: inactive

CCCN1CCC(O)(c2cccc(C(F)(F)F)c2F)CC1 [drawing 55]
Locomotor activity, MK + example 100 μmol/kg [4]: 17802 ± 6842 (P = 0.09) counts/30 min ± SEM

CCN1CCC(O)(c2cccc(C(F)(F)F)c2F)CC1 [drawing 56]
Locomotor activity, MK + example 100 μmol/kg [4]: 18307 ± 7375 (P =0.3) counts/30 min ± SEM

CCCN1CCC(O)(c2cccc(Cl)c2Cl)CC1 [drawing 57]
Locomotor activity, MK + example 100 μmol/kg [4]: 9564 ± 4584 (P =0.16) counts/30 min ± SEM

CCCN1CCC(O)(c2ccc(F)c(C(F)(F)F)c2)CC1 [drawing 58]
Locomotor activity, MK + example 100 μmol/kg [4]: 7312 ± 4537 (P =0.0005) counts/30 min ± SEM

COCCN1CCC(O)(c2ccc(Cl)c(C(F)(F)F)c2)CC1 [drawing 59]
Locomotor activity, MK + example 100 μmol/kg [4]: 7407 ± 3282 (P =0.00003) counts/30 min ± SEM

Source: patent US7579474B2, “Substituted piperidines as modulators of dopamine neurotransmission” (NSAB, Filial AF Neurosearch AB, Sverige, priority 2004, dated 2009)
